The text below walks through data of US8624027B2, “Combination therapy for treating cancer and diagnostic assays for use therein” (AbbVie Inc., priority 2005, dated 2014).

Data set [1] concerns NCI-H146 human small cell lung carcinoma cells. As to the kind of experiment: Cellular efficacy in human tumor cell line (MTS viability assay). In kind it is cell-based. Particulars: NCI-H146, 10% human serum, 48 hours. How it is done:
NCI-H146 (ATCC, Manassas, Va.) human small cell lung carcinoma cells were plated 50,000 cells per well in 96-well tissue culture plates in a total volume of 100 μL tissue culture medium supplemented with 10% human serum (Invitrogen, Carlsbad, Calif.) instead of fetal bovine serum and treated with a 2-fold serial dilution of the compounds of interest from 10 μM to 0.020 μM. Each concentration was tested in duplicate at least 3 separate times. The number of viable cells following 48 hours of compound treatment was determined using the CellTiter 96® AQueous non-radioactive cell proliferation MTS assay according to manufacturer's recommendations (Promega Corp., Madison, Wis.).
(In general: Formazan colour is commonly taken as a measure of viable cells.)

A further data set concerns the target T1, Bcl-2 protein (Homo sapiens, UniProt P10415, DELINS35-91DVEENRTEAPEGTESE, form not given).
T1 construct: fused on or other part: A short piece of the Bcl-xL (Q07817) loop replaces Bcl-2 loop residues 35-91; The C-terminal membrane anchor is absent
Put plainly: Bcl-2 binding affinity, fluorescence polarization with fluorescein-labeled BAX peptide. As to conditions: Wang's equation, read-out: Target Binding Affinity Ki (Bcl-2). On the technique in general: Polarisation of emitted light reports the rotation of a fluorescent probe.

Another data set has as its target Bcl-XL protein (Homo sapiens, UniProt Q07817). Put plainly: Bcl-XL binding affinity, fluorescence polarization with fluorescein-labeled BAD peptide. As to conditions: Wang's equation, read-out: Target Binding Affinity Ki (Bcl-XL).
Data set [2] in a line: Pharmacokinetic evaluation in rat. Particulars: male, Sprague-Dawley, plasma; for AUC(0-inf): single 5 mg/kg oral dose, Table 1, read-out: Pharmacokinetic area under the plasma concentration Curve (rat) AUC0-∞; for AUC / Cmax: 5 mg/kg, oral; for AUC: Table 3, read-out: Pharmacokinetic area under the plasma concentration Curve (rat) AUC; for Cmax: Table 3, read-out: Pharmacokinetic peak plasma concentration (rat) Cmax. Format: in vivo. How it is done: The pharmacokinetic behavior of compounds of this disclosure was determined following a single 2 mg/kg intravenous or 5 mg/kg oral dose in male Sprague-Dawley derived rats (n=3 per group). The compounds were prepared as 2 mg/mL solution in a 10% DMSO in PEG-400 formulation for both oral and intravenous administration. The 1 mL/kg intravenous dose was administered as a slow bolus (about 1-2 minutes) in the jugular vein of a rat under light ether anesthetic. The oral dose was administered by gavage. Serial blood samples were obtained from a tail vein of each rat prior 0.1 (IV only), 0.25, 0.5, 1, 1.5, 2, 3, 4, 6, 8 and 24 hours after dosing. The heparinized samples were thoroughly mixed and placed in an ice bath. Plasma was separated by centrifugation and stored frozen prior to analysis.
The compounds of interest were separated from the plasma using protein precipitation with acetonitrile. A plasma (100-200 μL, sample or spiked standard) aliquot was combined with 50 μL of internal standard (structurally related analog prepared in acetonitrile) and 1 ml acetonitrile in a 96-well polypropylene deep well plate. The plates were vortexed for 30 seconds followed by centrifugation (3500 rpm×15 minutes, 4° C.). In an automated manner, the supernatant was transferred to a clean 96-well plate. The samples were evaporated to near dryness on a Micro-Vap™ under a stream of dry nitrogen over low heat (˜37° C.). The samples were reconstituted vortexing with 0.2 mL 5% DMSO in acetonitrile. A 0.1-0.2 ml aliquot of acetonitrile: 0.1% trifluoroacetic acid (20:80, by volume) was added to each well, followed by an additional 30 second vortexing. The plates were centrifuged (3500 rpm×15 minutes, 4° C.) prior to HPLC-MS/MS analysis. Samples were analyzed simultaneously with spiked plasma standards. All samples from each study were analyzed as a single batch on the LC-MS/MS.
The compounds of interest and the internal standard were separated from each other and co-extracted contaminants on a 50×3 mm Keystone Betasil CN 5 μm column with an acetonitrile: 0.1% trifluoroacetic acid mobile phase (50:50, by volume) at a flow rate of 0.7 ml/min. Analysis was performed on a Sciex API 300™ Biomolecular Mass Analyzer using a heated nebulizer interface. Peak areas of the title compounds and internal standards were determined using the Sciex MacQuan™ software. Calibration curves were derived from peak area ratio (parent drug/internal standard) of the spiked rat plasma standards using least squares linear regression of the ratio versus the theoretical concentration. The methods were generally linear over the range of the standard curve (correlation coefficients >0.99) with an estimated quantitation limit of 0.01 μg/mL. The plasma concentration data for each animal were submitted to multi-exponential curve fitting using WinNonlin. The area under the plasma concentration-time curve from 0 to t hours (time of the last measurable plasma concentration) after dosing (AUC0-t) was calculated using the linear trapezoidal rule for the plasma concentration-time profiles. The residual area extrapolated to infinity, determined as the final measured plasma concentration (Ct) divided by the terminal elimination rate constant (β), was added to AUC0-t to produce the total area under the curve (AUC0-∞). Ki values shown in the tables below were determined using Wang's equation (Wang Z X., An Exact Mathematical Expression For Describing Competitive Binding Of Two Different Ligands To A Protein Molecule. FEBS Lett. 1995; 360:111-4)).

Setting [3] is: Table 1, read-out: NCI-H146 Cellular Efficacy EC50.
[4] abbreviates: Table 3, read-out: NCI-H146 Cellular Efficacy H146 EC50.

Where two headings read alike, the source gives them in different places.

T1 sequence (P10415 with tags, fused parts or gaps with the stated changes): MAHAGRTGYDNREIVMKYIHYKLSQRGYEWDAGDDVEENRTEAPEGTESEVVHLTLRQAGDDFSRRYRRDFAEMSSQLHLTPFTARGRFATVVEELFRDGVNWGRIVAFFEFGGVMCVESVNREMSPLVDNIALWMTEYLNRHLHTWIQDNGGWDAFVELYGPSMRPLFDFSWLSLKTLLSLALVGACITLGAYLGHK
Sequence of Bcl-XL protein (Q07817 with tags, fused parts or gaps DEL45-84): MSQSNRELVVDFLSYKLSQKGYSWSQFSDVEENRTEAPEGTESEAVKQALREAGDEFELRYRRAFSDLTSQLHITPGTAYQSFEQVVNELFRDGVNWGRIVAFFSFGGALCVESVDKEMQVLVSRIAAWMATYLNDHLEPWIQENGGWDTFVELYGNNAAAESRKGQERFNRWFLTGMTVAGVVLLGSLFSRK
From the text for Bcl-2 protein: Binding affinity of compounds having formula (II) to Bcl-2 protein is indicia of their inhibition of the activity of this protein.

The term EC50 denotes the midpoint of the concentration-response curve. Broadly, the Ki is the dissociation constant of the complex between target and ligand, obtained from inhibition or displacement. On to `CC1(C)CCC(CN2CCN(c3ccc(C(=O)NS(=O)(=O)c4ccc(N[C@H](CCN5C[C@@H]6C[C@H]5CO6)CSc5ccccc5)c(S(=O)(=O)C(F)(F)F)c4)cc3)CC2)=C(c2ccc(Cl)cc2)C1` [Example 36, N-(4-(4-((2-(4-chlorophenyl)-4,4-dimethylcyclohex-1-en-1-yl)methyl)piperazin-1-yl)benzoyl)-4-(((1R)-3-((1S,4S)-2-oxa-5-azabicyclo[2.2.1]hept-5-yl)-1-((phenylsulfanyl)methyl)propyl)amino)-3-((trifluoromethyl)sulfonyl)benzenesulfonamide], for which, in data set [1] (setting [3]), the EC50 is 24.2 nM. For the same molecule, the inhibitory constant (Ki) at Bcl-2 protein and at Bcl-XL protein was not above 1 nM throughout. In addition, the AUC(0-inf) in data set [2] came out at 4.22 µM·h.
For the molecule `O=C(NS(=O)(=O)c1ccc(N[C@H](CCN2CCOCC2)CSc2ccccc2)c(S(=O)(=O)C(F)(F)F)c1)c1ccc(N2CCN(CC3=C(c4ccc(Cl)cc4)CCCC3)CC2)cc1` [Example 7, N-(4-(4-((2-(4-chlorophenyl)cyclohex-1-en-1-yl)methyl)piperazin-1-yl)benzoyl)-4-(((1R)-3-(morpholin-4-yl)-1-((phenylsulfanyl)methyl)propyl)amino)-3-((trifluoromethyl)sulfonyl)benzenesulfonamide], the EC50 in data set [1] (setting [3]) was 58.9 nM; in data set [1] (setting [4]), 59 nM. Also, the Ki on Bcl-2 protein and at Bcl-XL protein was not above 1 nM each time. Further, the AUC in data set [2] amounted to 3.87 µM·h. Moreover, the Cmax in data set [2] came to 518 nM. For the same molecule, the AUC(0-inf) in data set [2] came to 3.87 µM·h.
For the molecule `CN(C)CC[C@H](CSc1ccccc1)Nc1ccc(S(=O)(=O)NC(=O)c2ccc(N3CCN(CC4=C(c5ccc(Cl)cc5)CCCCC4)CC3)cc2)cc1S(=O)(=O)C(F)(F)F` [Example 17, N-(4-(4-((2-(4-chlorophenyl)cyclohept-1-en-1-yl)methyl)piperazin-1-yl)benzoyl)-4-(((1R)-3-(dimethylamino)-1-((phenylsulfanyl)methyl)propyl)amino)-3-((trifluoromethyl)sulfonyl)benzenesulfonamide], the EC50 in data set [1] (setting [3]) was 28.7 nM. The Ki on Bcl-2 protein and at Bcl-XL protein was not above 1 nM throughout. Moreover, the AUC(0-inf) in data set [2] was 0.88 µM·h.
As to `O=C(NS(=O)(=O)c1ccc(N[C@H](CCN2CCOCC2)CSc2ccccc2)c(S(=O)(=O)C(F)(F)Cl)c1)c1ccc(N2CCN(CC3=C(c4ccc(Cl)cc4)CCCC3)CC2)cc1` [Example 3, 3-((chloro(difluoro)methyl)sulfonyl)-N-(4-(4-((2-(4-chlorophenyl)-1-cyclohex-1-en-1-yl)methyl)piperazin-1-yl)benzoyl)-4-(((1R)-3-(morpholin-4-yl)-1-((phenylsulfanyl)methyl)propyl)amino)benzenesulfonamide], the EC50 in data set [1] (setting [3]) worked out at 28.8 nM. Besides, the EC50 in data set [1] (setting [4]) came to 29 nM. Moreover, at Bcl-2 protein, the Ki was not above 1 nM. Moreover, the Ki at Bcl-XL protein is not above 1 nM. Moreover, in data set [2], the AUC amounted to 4.13 µM·h, the Cmax came to 385 nM and the AUC(0-inf) is 4.13 µM·h.
In the case of `O=C(NS(=O)(=O)c1ccc(N[C@H](CCN2CC3CC2CO3)CSc2ccccc2)c(S(=O)(=O)C(F)(F)F)c1)c1ccc(N2CCN(CC3=C(c4ccc(Cl)cc4)CCCC3)CC2)cc1` (stereo partly drawn) [Example 9, N-(4-(4-((2-(4-chlorophenyl)cyclohex-1-en-1-yl)methyl)piperazin-1-yl)benzoyl)-4-(((1R)-3-(2-oxa-5-azabicyclo[2.2.1]hept-5-yl)-1-((phenylsulfanyl)methyl)propyl)amino)-3-((trifluoromethyl)sulfonyl)benzenesulfonamide], the EC50 amounted to 13.7 nM in data set [1] (setting [3]) and 14 nM in data set [1] (setting [4]). In addition, the Ki on Bcl-2 protein and on Bcl-XL protein was not above 1 nM throughout. The AUC in data set [2] was 1.88 µM·h. Further, the Cmax in data set [2] turned out to be 156 nM. Also, in data set [2], the AUC(0-inf) worked out at 1.88 µM·h.
With `O=C(NS(=O)(=O)c1ccc(N[C@H](CCN2CCCC2)CSc2ccccc2)c(S(=O)(=O)C(F)(F)Cl)c1)c1ccc(N2CCN(CC3=C(c4ccc(Cl)cc4)CCCCC3)CC2)cc1` [Example 32, 3-((chloro(difluoro)methyl)sulfonyl)-N-(4-(4-((2-(4-chlorophenyl)cyclohept-1-en-1-yl)methyl)piperazin-1-yl)benzoyl)-4-(((1R)-1-((phenylsulfanyl)methyl)-3-(pyrrolidin-1-yl)propyl)amino)benzenesulfonamide], the EC50 in data set [1] (setting [3]) came to 18.7 nM. The Ki at Bcl-2 protein and on Bcl-XL protein was not above 1 nM throughout. In addition, the AUC(0-inf) in data set [2] was determined as 1.38 µM·h.
Turning to `CC1(C)CCC(c2ccc(Cl)cc2)=C(CN2CCN(c3ccc(C(=O)NS(=O)(=O)c4ccc(N[C@H](CCN5CCCC5)CSc5ccccc5)c(S(=O)(=O)C(F)(F)Cl)c4)cc3)CC2)C1` [Example 30, 3-((chloro(difluoro)methyl)sulfonyl)-N-(4-(4-((2-(4-chlorophenyl)-5,5-dimethylcyclohex-1-en-1-yl)methyl)piperazin-1-yl)benzoyl)-4-(((1R)-1-((phenylsulfanyl)methyl)-3-(pyrrolidin-1-yl)propyl)amino)benzenesulfonamide], the EC50 in data set [1] (setting [3]) was found to be 31.7 nM. For the same molecule, the Ki on Bcl-2 protein and at Bcl-XL protein was not above 1 nM throughout. The AUC(0-inf) in data set [2] was determined as 3.39 µM·h.
Take `CN(C)CC[C@H](CSc1ccccc1)Nc1ccc(S(=O)(=O)NC(=O)c2ccc(N3CCN(CC4=C(c5ccc(Cl)cc5)CCCC4)CC3)cc2)cc1S(=O)(=O)C(F)(F)F` [Example 26, N-(4-(4-((2-(4-chlorophenyl)cyclohex-1-en-1-yl)methyl)piperazin-1-yl)benzoyl)-4-(((1R)-3-(dimethylamino)-1-((phenylsulfanyl)methyl)propyl)amino)-3-((trifluoromethyl)sulfonyl)benzenesulfonamide]: the EC50 in data set [1] (setting [3]) was found to be 24.3 nM; in data set [1] (setting [4]), 24 nM. In addition, the Ki at Bcl-2 protein and at Bcl-XL protein was not above 1 nM in each case. The AUC in data set [2] was 0.803 µM·h. Also, in data set [2], the Cmax was 97 nM. The AUC(0-inf) in data set [2] came to 0.8 µM·h.
For the molecule `CC1(C)CCC(c2ccc(Cl)cc2)=C(CN2CCN(c3ccc(C(=O)NS(=O)(=O)c4ccc(N[C@H](CCN5CCOCC5)CSc5ccccc5)c(S(=O)(=O)C(F)(F)Cl)c4)cc3)CC2)C1` [Example 19, 3-((chloro(difluoro)methyl)sulfonyl)-N-(4-(4-((2-(4-chlorophenyl)-5,5-dimethylcyclohex-1-en-1-yl)methyl)piperazin-1-yl)benzoyl)-4-(((1R)-3-(morpholin-4-yl)-1-((phenylsulfanyl)methyl)propyl)amino)benzenesulfonamide], in data set [1] (setting [3]), the EC50 stood at 15.8 nM. For the same molecule, the Ki on Bcl-2 protein and at Bcl-XL protein was not above 1 nM each time. The AUC(0-inf) in data set [2] was determined as 7.12 µM·h.
